# Results reported in PubChem BioAssay AID1888 (NMMLSC, 2009).
# Activity calls are given as the source filed them. How the calls were made is not given here.
# Molecular target: Regulator of G-protein signaling 16 (Homo sapiens) (UniProt O15492)
# Assay: small molecules altering RGS16 binding to Galphao – biochemical, bead-based flow cytometry, multiplex, dose response (AID 1888)
# Settings: not given
# Chain of Regulator of G-protein signaling 16 (Homo sapiens) (O15492 whole entry, looked up): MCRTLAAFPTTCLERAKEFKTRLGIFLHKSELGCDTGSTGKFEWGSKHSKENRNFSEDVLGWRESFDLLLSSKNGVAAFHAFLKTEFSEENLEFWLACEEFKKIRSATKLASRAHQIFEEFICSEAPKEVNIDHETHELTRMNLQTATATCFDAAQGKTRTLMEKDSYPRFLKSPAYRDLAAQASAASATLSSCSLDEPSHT
row,Structure (SMILES),EC50
1,CN(C)[C@@H]1C(=O)C(C(=O)NCN2CCCC2)=C(O)[C@@]2(O)C(=O)C3=C(O)c4c(O)cccc4[C@@](C)(O)C3CC12 (some centres not stated),7.31 µM
2,CCOC(=O)/C(C(=O)Nc1ccccc1Cl)=C1/NC(C)(C)Cc2ccccc21,inactive
3,CC(C)Sc1nc2ccc(N3C(=O)C4CCCCC4C3=O)cc2s1 (configuration not stated),> 30 µM (inactive)
4,NS(=O)(=O)c1ccc(N/N=C/c2ccc(O)c(O)c2O)c([N+](=O)[O-])c1,1.66 µM
5,CCOC(=O)C1=C(C)NC(C)=C(C(=O)OCCNC(=O)c2cccnc2)C1c1cccc([N+](=O)[O-])c1 (configuration not stated),> 30 µM (inactive)
6,O=C1CCCC2=C1C(c1cccs1)n1ncnc1N2 (configuration not stated),> 30 µM (inactive)
7,O=c1[nH]c(=S)n(Cc2ccco2)c(O)c1C=NCc1cccs1,> 30 µM (inactive)
8,COc1ccc(Br)cc1/C=N/Nc1cccc(C(=O)O)c1,> 30 µM (inactive)
9,CCOC(=O)N=Nc1c(O)n(C)c2ccccc12,> 30 µM (inactive)

# Same assay, conditions: measured here: Ki for RGS16-Galphao binding
row,Structure (SMILES),Ki [µM]
1,CN=c1scc(C)n1/N=C/c1ccc(O)c(O)c1O,7.14
2,CN(C)[C@@H]1C(=O)C(C(=O)NCN2CCCC2)=C(O)[C@@]2(O)C(=O)C3=C(O)c4c(O)cccc4[C@@](C)(O)C3CC12 (some centres not stated),5.93
3,O=C(O)C[C@@H]1C(=O)O[C@@H]2C(COC(=O)c3cc(O)c(O)c(O)c3)O[C@@H](OC(=O)c3cc(O)c(O)c(O)c3)[C@@H](OC(=O)c3cc(O)c(O)c4c3[C@H]1[C@H](O)C(=O)O4)[C@H]2OC(=O)c1cc(O)c(O)c(O)c1 (some centres not stated),1.36
4,COc1ccc(OC)c(CCNC(=O)Cn2sc3nc(C)cc(C)c3c2=O)c1,1.43
5,O=[N+]([O-])c1ccc(Sc2cccc[n+]2[O-])c2nonc12,1.07
6,O=C(COc1ccccc1C(=O)N/N=C\c1ccc(O)c(O)c1)N/N=C/c1ccc(O)c(O)c1,3.24
7,O=c1c2ccccc2sn1-c1cc(S(=O)(=O)N2CCOCC2)ccc1N1CCOCC1,0.56
8,O=c1c2ccccc2sn1-c1ccc(S(=O)(=O)N2CCCC2)cc1,1.94
9,Cc1ccc(-n2sc3ccccc3c2=O)cc1S(=O)(=O)N1CCCCC1,1.62
10,Cc1cccc(N2CCN(C(=O)Cn3sc4nc(C)cc(C)c4c3=O)CC2C)c1 (configuration not stated),1.05
11,NS(=O)(=O)c1ccc(N/N=C/c2ccc(O)c(O)c2O)c([N+](=O)[O-])c1,1.35
12,Cc1ccccc1-n1sc2cc(F)ccc2c1=O,13
13,CCCNC(=O)Cn1sc2nc(C)cc(C)c2c1=O,1.42
14,O=C(OCC1O[C@@H](OC(=O)c2cc(O)c(O)c(O)c2)[C@@H](OC(=O)c2cc(O)c(O)c(O)c2)[C@@H](OC(=O)c2cc(O)c(O)c(O)c2)[C@@H]1OC(=O)c1cc(O)c(O)c(O)c1)c1cc(O)c(O)c(O)c1 (some centres not stated),4.68
15,Cc1[nH]n(-c2ccccc2)c(=S)c1C=NCCCN=Cc1c(C)[nH]n(-c2ccccc2)c1=S,7.13
16,COc1ccc(C2=CC(=O)C=CC2=O)cc1,3
17,CCN1/C(=C/C=C/C=C/c2sc3ccccc3[n+]2CC)Sc2ccccc21,5.41
18,CC(=O)OCCCNc1cc(Sc2nc3ccccc3s2)c2nonc2c1[N+](=O)[O-],8.45
19,CCC(=O)NC(c1ccc(C)cc1)c1cc([N+](=O)[O-])c2cccnc2c1O (configuration not stated),9.46
20,COC(=O)CCC(=O)Nc1sc(C)c(C)c1C(N)=O,5.32
21,O=C(NCCCN1CCOCC1)c1sc2cc([N+](=O)[O-])ccc2c1Cl,0.77
22,CN(C)S(=O)(=O)c1cccc(-n2sc3ccccc3c2=O)c1,1.24
23,O=c1c2ccccc2sn1-c1cc(S(=O)(=O)N2CCOCC2)ccc1N1CCCC1,1.83
24,Cc1ccccc1-n1c(-c2ccncc2)n[nH]c1=S,6.29
25,CC(=O)N(O)CCCCCNC(=O)CCC(=O)N(O)CCCCCNC(=O)CCC(=O)N(O)CCCCCN,1.5
26,CN1CCN(C2=C(Cl)C(=O)C(c3cnc(N4CCCCC4)s3)=C(Cl)C2=O)CC1,0.15
27,CC(=O)N1CC[n+]2c(-c3ccc([N+](=O)[O-])cc3)csc21,11

row,Structure (SMILES),Ki [µM]
1,O=C(Cc1csc(N2CCOCC2)n1)N/N=C/c1ccc(O)c(O)c1O,9.08
2,CCN=c1scc(C)n1/N=C/c1ccc(O)c(O)c1O,15.1
3,CCOc1ccccc1-c1c2cc(O)c(=O)cc-2oc2cc(O)c(O)cc12,11.3
4,Cc1cc(Cl)ccc1N=c1ssnc1Cl,7.19
5,O=C1OCC2OC(O)C(O)C(O)C2OC(=O)c2cc(O)c(O)c(O)c2-c2c(O)c(O)c3oc(=O)c4c(c(O)c(O)c5oc(=O)c2c3c54)-c2c1cc(O)c(O)c2O (configuration not stated),13.4
6,CCOC(=O)C1CCCN(C(=O)Cn2sc3nc(C)cc(C)c3c2=O)C1 (configuration not stated),1.53
7,O=c1c2ccccc2sn1-c1ccccc1,1.37
8,CCNc1ccc2noc3c2c1C(=O)c1ccccc1-3,23.7
9,COCCCNC(=O)c1ccc2c3c(onc13)-c1ccccc1C2=O,4.61
10,Cc1cc(C)c2c(=O)n(CC(=O)Nc3ccc(Cl)cc3)sc2n1,1.42
11,Cc1[nH]n(-c2ccccc2)c(=S)c1C=Nc1cccc([N+](=O)[O-])c1,1.29
12,CCN(CC)S(=O)(=O)c1cccc(C(=O)N/N=C/c2ccc(O)c(O)c2O)c1,4.14
13,O=C1CCC(=O)N(O)CCCCCNC(=O)CCC(=O)N(O)CCCCCNC(=O)CCC(=O)N(O)CCCCCN1,1.82
14,O=C(O[C@@H]1OC2COC(=O)c3cc(O)c(O)c(O)c3-c3c(cc(O)c(O)c3O)C(=O)O[C@@H]([C@H]1O)[C@@H]2O)c1cc(O)c(O)c(O)c1,5.42
15,C/C(=N/NC(=O)c1cc(O)c(O)c(O)c1)c1ccc([N+](=O)[O-])cc1,15.8
16,CCN1/C(=C/C(C)=C/c2sc3ccccc3[n+]2CC)Sc2ccccc21,7.85
17,CC1(C)OC(=O)C(=Cc2ccc(-c3ccc(S(N)(=O)=O)cc3)o2)C(=O)O1,9.64
18,CC(NC(=O)c1sc2cc([N+](=O)[O-])ccc2c1Cl)C(C)(C)C (configuration not stated),2
19,NS(=O)(=O)c1ccc(CNC(=O)/C=C/c2ccco2)cc1,6.22
20,CN(C)c1ncc(C2=C(Cl)C(=O)C(N3CCCC3)=C(Cl)C2=O)s1,4.05
21,CCC(=O)NC1=C(Cl)C(=O)C(NC(=O)CC)=C(Cl)C1=O,0.68
22,Cc1cc(C)c2c(=O)n(CC(=O)Nc3cccc(F)c3)sc2n1,1.39
23,Cc1ccc(NC(=O)Cn2sc3nc(C)cc(C)c3c2=O)c(Cl)c1,0.71
24,CCOC(=O)c1sc(NC(=O)CSc2nnc(Cc3ccccc3)o2)c(C#N)c1C,10.9
25,Nc1c(C(=O)NCC2CCCO2)sc2nc3c(c(-c4ccco4)c12)CC/C3=C\c1ccco1 (configuration not stated),2.21
26,O=C1C(Cl)=C(N2CCCCC2)C(=O)C(Cl)=C1c1cnc(N2CCCCC2)s1,1.34
